Reference: patent US20150291507A1, “PANTHENYL DOCOSAHEXAENEOATE AND ITS USE FOR TREATING AND PREVENTING CARDIOVASCULAR DISEASES” (PIERRE FABRE MEDICAMENT, priority 2010, published 2015)

System: atrial refractory period
Assay: Atrial refractory period in the anesthetized pig (electrical stimulation S1/S2, left atrium)
Assay type: in vivo, pig (male Landrace)
Protocol: The study was carried out on male Landrace pigs (20-25 kg). Anesthesia was maintained with isoflurane (0.5-3% of lung tidal volume). Number of respirations and tidal volume were adjusted so as to maintain blood gases within physiological limits. A left lateral thoracotomy was performed in the fourth intercostal space and the pericardium was opened. Polyethylene-filled catheters were introduced into the nearest thoracic artery to measure arterial pressure during the experiment and in the left saphenous vein to administer the active products or a control carrier. An atrial electrocardiogram (ECG) was continuously recorded, with three electrodes placed and sutured in the epicardium and the fourth serving as mass and placed in the thoracic muscles. Thus, the ECG provides information on atrial activity. Two bipolar electrodes were also placed in the left atrium at an interval of 0.3 cm and were maintained by fishing hooks. Electrical stimulations were carried out by a stimulator (DS 8000, WPI). […] The panthenyl docosahexaenoate of formula A (quantity: 10+10 mg/kg, n=4) was administered in the form of a bolus over 1 minute and then allowed to diffuse for 40 minutes. […]

SMILES: CC/C=C\C/C=C\C/C=C\C/C=C\C/C=C\C/C=C\CCC(=O)OCCCNC(=O)C(O)C(C)(C)CO (stereo in doubt) [panthenyl docosahexaenoate of formula A, 3-[(2R)-2,4-dihydroxy-3,3-dimethylbutanamido]propyl(4Z,7Z,10Z,13Z,16Z,19Z)-docosa-4,7,10,13,16,19-hexaenoate]
- increase in atrial refractory periods (ARPs) (intravenous 10 mg/kg + 10 mg/kg (bolus over 1 minute, then 40 minutes), anesthetized male Landrace pigs, n=4, p<0.001, placebo -4±3 ms): 19 ± 2 ms
- activity on atrial refractory period compared with the panthenol diester (same formulation and administration, anesthetized pigs, FIG. 1): significantly more active than the panthenol diester
